What was measured:
Type in all cases: physicochemical
[1] = Appearance of polyketone in water at 20% w/v
Procedure: (§1) To a solution or dispersion of the polyketone (1 g in 5 mL of distilled water) is added hydrazide (0.9 stoichiometric equivalents of acyl hydrazide moiety compared to ketone functional group).

[2] = Glass transition temperature by DSC; details: for Tg: polyhydrazone from polyketone + 0.9 eq ADH, DSC
Procedure: Glass transition temperatures (Tg) are measured by differential scanning calorimetry (DSC). Samples were prepared by compressing 2-20 mg of material into a 40 μL pierced aluminium pan and were scanned between −40° and +180° C. at either 10° C./min or 5° C./min. The samples were heated and cooled three times and Tg data were obtained from the second and third sweep; ignoring the initial annealing and desolvating sweep. Tg were determined by observation of the rate of change of slope and baseline shift for the glass and plastic states.
as §1

[3] = Film formation of cast polyhydrazone material; details: for Cast material: cast from water
Procedure: as §1

[4] = Appearance of aqueous composition on hydrazide addition (polyhydrazone formation); details: appearance in water; for Polyhydrazone from 0.9 eq Formula II-B addition / Polyhydrazone from 0.9 eq Formula II-C addition: polyketone 20% w/v; for Polyhydrazone from 0.9 eq ADH addition: polyketone 20% w/v + 0.9 eq ADH
Procedure: as §1

[5] = as above; details: water
[6] = Polyhydrazone formation in ACN, ACN/water, THF/water or water at 20-50% w/v; details: appearance
[7] = polyhydrazone from polyketone + 0.9 eq ADH
[8] = polyhydrazone from (7) and formula II-C, cast film

SMILES	Polyketone in water at 20% w/v ([1]; 1 g in 5 mL distilled water)	Polyketone in water at 20% w/v ([1]; second table)	Tg [2]	Cast material [3, 7]	Polyhydrazone from 0.9 eq Formula II-B addition [4]	Polyhydrazone from 0.9 eq ADH addition [4]	Polyhydrazone from 0.9 eq Formula II-C addition ([4]; initially after hydrazide addition)	Polyhydrazone from 0.9 eq Formula II-C addition ([4]; subsequently after hydrazide addition)	Time over which cast film hardened [3, 7]	Polyhydrazone from 0.9 eq Formula II-C addition [4]	Polyhydrazone from 0.9 eq ADH addition, at higher concentrations [5]	Polyhydrazone from 0.9 eq ADH in ACN at 50% w/v [6]	Polyhydrazone from 0.9 eq ADH in water at 50% w/v [6]	Polyhydrazone from 0.9 eq. Formula II-C in ACN at 50% w/v [6]	Tg (annealed) [2, 8]	Tg (initial) [2, 8]	Cast film of polyhydrazone oil ([3]; polyhydrazone from (7) and formula II-C)
CC(=O)CCC(=O)OCCOC(=O)CCC(C)=O [Polyketone compound (1), Ethyleneglycol Dilevulinate]	Clear solution	Clear solution	37 °C	Shiny soft well adhered	White precipitate	Clear solution	Clear solution	precipitate forms	–	–	–	–	–	–	–	–	–
CC(=O)CCC(=O)OCCOCCOC(=O)CCC(C)=O [Polyketone compound (2), Diethyleneglycol Dilevulinate]	Clear solution	Clear solution	27 °C	Soft easily marked film that	Cloudy solution, gel	Clear solution	–	–	hardened over 5-days.	Cloudy solution,	–	–	–	–	–	–	–
CC(=O)CCC(=O)OCC(COC(=O)CCC(C)=O)OC(=O)CCC(C)=O [Polyketone compound (3), Glycerol Trilevulinate]	Unstable emulsion	–	60 °C	Hard shiny well adhered	–	Gels upon	–	–	–	–	–	–	–	–	–	–	–
CC(=O)CCC(=O)OCCN(CCOC(=O)CCC(C)=O)CCOC(=O)CCC(C)=O [Polyketone compound (6), Triethanolamine Trilevulinate]	Clear solution	Clear solution	38 °C	–	No reaction	Clear solution	–	–	–	Forms white solid	Gels at higher	–	–	–	–	–	–
CC(=O)CCC(=O)OC(C)C(C)OC(=O)CCC(C)=O (stereo not drawn) [Polyketone compound (7), 2,3-Butanediol Dilevulinate]	Unstable emulsion	–	121 °C	Hard film	–	Opaque solution	–	–	–	–	–	Pale yellow solid	Pale yellow gel	Yellow oil	20 °C	38.5 °C	strong brittle film
CC(=O)CCC(=O)OCc1ccc(COC(=O)CCC(C)=O)cc1 [Polyketone compound (8), 1,4-Dimethanolbenzene Dilevulinate]	–	–	–	–	–	–	–	–	–	–	–	Yellow oil formed	Pale yellow gel	–	–	–	–

Reference: patent publication US20160237302A1, “WATERBORNE COMPOSITIONS” (VICTORIA LINK LIMITED, priority 2013, published 2016)
